Measurements from patent US20250177396A1, “POLO-LIKE KINASE 4 (PLK4) INHIBITORS, PHARMACEUTICAL COMPOSITIONS, METHODS OF PREPARATION AND USES THEREOF” (Repare Therapeutics Inc., priority 2022, published 2025).

target: T1, PLK4 (Homo sapiens, UniProt O00444); assay: PLK4 NanoBRET target engagement assay; assay type: binding; conditions: HEK293 T cells transfected with PLK4 NanoLuc fusion vector; K-5 tracer; 2 hrs incubation
T1 construct: expressed in transfected cells; host or cells: HEK293 T cells (ATCC CRL-3216)
T1 sequence (O00444 1-970): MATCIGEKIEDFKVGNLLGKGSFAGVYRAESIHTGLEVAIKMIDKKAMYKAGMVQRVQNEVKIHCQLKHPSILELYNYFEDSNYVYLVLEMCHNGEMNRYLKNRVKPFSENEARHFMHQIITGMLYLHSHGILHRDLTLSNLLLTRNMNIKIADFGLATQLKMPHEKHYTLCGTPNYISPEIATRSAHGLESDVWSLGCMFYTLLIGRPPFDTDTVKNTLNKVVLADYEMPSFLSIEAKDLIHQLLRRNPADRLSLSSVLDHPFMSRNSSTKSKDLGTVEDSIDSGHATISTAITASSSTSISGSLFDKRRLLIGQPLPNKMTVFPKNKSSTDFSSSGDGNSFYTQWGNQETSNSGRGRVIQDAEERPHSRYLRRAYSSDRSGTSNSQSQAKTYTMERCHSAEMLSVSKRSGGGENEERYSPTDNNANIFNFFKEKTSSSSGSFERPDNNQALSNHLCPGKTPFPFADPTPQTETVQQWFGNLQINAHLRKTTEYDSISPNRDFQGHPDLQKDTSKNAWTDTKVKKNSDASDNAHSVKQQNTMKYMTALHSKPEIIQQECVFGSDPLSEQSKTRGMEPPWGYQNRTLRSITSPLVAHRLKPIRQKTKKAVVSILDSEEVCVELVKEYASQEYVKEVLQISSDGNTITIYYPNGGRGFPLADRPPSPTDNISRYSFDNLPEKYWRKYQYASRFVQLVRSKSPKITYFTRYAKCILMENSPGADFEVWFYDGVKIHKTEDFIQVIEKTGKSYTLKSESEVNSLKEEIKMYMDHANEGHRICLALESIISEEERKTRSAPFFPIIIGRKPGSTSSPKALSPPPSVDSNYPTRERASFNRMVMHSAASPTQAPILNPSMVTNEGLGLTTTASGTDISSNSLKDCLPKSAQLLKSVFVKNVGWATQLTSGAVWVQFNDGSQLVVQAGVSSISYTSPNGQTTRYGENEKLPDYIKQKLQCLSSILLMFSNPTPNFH
Summary of the method: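 HEK293T cells transiently expressing PLK4-NanoLuc, plated at 17000 cells/well with K-5 tracer and compound, incubated 2 h at 37 °C/5% CO2. After substrate/inhibitor mix, 610/450 nm emission ratio ×1000 gave mBRET; IC50 from 4-parameter fit.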

Point of comparison: `Cc1cc(Nc2nc(N(C)c3c(F)cc(S(C)(=O)=O)cc3F)nc(-c3cn(C4COC4)nc3C)c2C2CC2)n[nH]1` [Compound 180], IC50 0.004 µM. Against it:
- Cc1cc(Nc2nc(N(C)c3c(F)cc(S(C)(=O)=O)cc3F)nc(-c3cn4c(n3)CCC4)c2C2CC2)n[nH]1 [Compound 140] — within 1.5-fold, 0.003 µM
- Cc1cc(Nc2nc(N(C)c3c(F)cc(S(C)(=O)=O)cc3F)nc(-c3cnn(CCO)c3)c2C2CC2)n[nH]1 [Compound 141] — 2.2-fold higher, 0.009 µM
- Cc1cc(Nc2nc(N(C)c3c(F)cc(S(C)(=O)=O)cc3F)nc(-c3nccn3C)c2C2CC2)n[nH]1 [Compound 142] — 3.2-fold higher, 0.013 µM
- Cc1cc(Nc2nc(N(C)c3c(F)cc(S(C)(=O)=O)cc3F)nc(-c3cn(C(F)F)nc3C)c2C2CC2)n[nH]1 [Compound 143] — 3-fold higher, 0.012 µM
- Cc1cc(Nc2nc(N(C)c3c(F)cc(S(C)(=O)=O)cc3F)nc(-c3cc(C#N)n(C)n3)c2C2CC2)n[nH]1 [Compound 145] — 4.5-fold higher, 0.018 µM
- Cc1cc(Nc2nc(N(C)c3c(F)cc(S(C)(=O)=O)cc3F)nc(-c3cccnn3)c2C2CC2)n[nH]1 [Compound 146] — 5.2-fold higher, 0.021 µM
- COc1nn(C)cc1-c1nc(N(C)c2c(F)cc(S(C)(=O)=O)cc2F)nc(Nc2cc(C)[nH]n2)c1C1CC1 [Compound 147] — within 1.5-fold, 0.005 µM
- Cc1cc(Nc2nc(N(C)c3c(F)cc(S(C)(=O)=O)cc3F)nc(-c3cn(C4CC4)cn3)c2C2CC2)n[nH]1 [Compound 148] — the same, 0.004 µM
- Cc1cc(Nc2nc(N(C)c3c(F)cc(S(C)(=O)=O)cc3F)nc(-c3cn(C)nc3C(F)F)c2C2CC2)n[nH]1 [Compound 149] — 1.5-fold higher, 0.006 µM
- COCCn1ccc(-c2nc(N(C)c3c(F)cc(S(C)(=O)=O)cc3F)nc(Nc3cc(C)[nH]n3)c2C2CC2)n1 [Compound 150] — 3.8-fold higher, 0.015 µM
- Cc1cc(Nc2nc(N(C)c3c(F)cc(S(C)(=O)=O)cc3F)nc(-c3oc(C)nc3C)c2C2CC2)n[nH]1 [Compound 151] — 1.8-fold higher, 0.007 µM
- [2H]C([2H])([2H])n1cc(-c2nc(N(C)c3c(F)cc(S(C)(=O)=O)cc3F)nc(Nc3cc(C)[nH]n3)c2C2CC2)c(C)n1 [Compound 152] — within 1.5-fold, 0.005 µM
- [2H]C([2H])([2H])n1ncc(-c2nc(N(C)c3c(F)cc(S(C)(=O)=O)cc3F)nc(Nc3cc(C)[nH]n3)c2C2CC2)c1C [Compound 153] — 2-fold higher, 0.008 µM
- COc1c(-c2nc(N(C)c3c(F)cc(S(C)(=O)=O)cc3F)nc(Nc3cc(C)[nH]n3)c2C2CC2)cnn1C [Compound 154] — 2.5-fold higher, 0.01 µM
- Cc1cc(Nc2nc(N(C)c3c(F)cc(S(C)(=O)=O)cc3F)nc(-c3ccn(C(F)F)n3)c2C2CC2)n[nH]1 [Compound 155] — 2.5-fold higher, 0.01 µM
- Cc1cc(Nc2nc(N(C)c3c(F)cc(S(C)(=O)=O)cc3F)nc(-c3cnc(C)o3)c2C2CC2)n[nH]1 [Compound 156] — 2.8-fold higher, 0.011 µM
- Cc1cc(Nc2nc(N(C)c3cc(F)c(S(C)(=O)=O)cc3F)nc(-c3cn(C)nc3C)c2C2CC2)n[nH]1 [Compound 159] — 1.8-fold higher, 0.007 µM
- COCCn1cc(-c2nc(N(C)c3c(F)cc(S(C)(=O)=O)cc3F)nc(Nc3cc(C)[nH]n3)c2C2CC2)c(C)n1 [Compound 160] — 2-fold lower, 0.002 µM
- COCCn1ncc(-c2nc(N(C)c3c(F)cc(S(C)(=O)=O)cc3F)nc(Nc3cc(C)[nH]n3)c2C2CC2)c1C [Compound 161] — the same, 0.004 µM
- Cc1cc(Nc2nc(N(C)c3c(F)cc(S(C)(=O)=O)cc3F)nc(-c3cc(C(F)F)n(C)n3)c2C2CC2)n[nH]1 [Compound 163] — 2.8-fold higher, 0.011 µM
- COCc1nc(-c2nc(N(C)c3c(F)cc(S(C)(=O)=O)cc3F)nc(Nc3cc(C)[nH]n3)c2C2CC2)cn1C [Compound 164] — 2-fold higher, 0.008 µM
- Cc1cc(Nc2nc(N(C)c3c(F)cc(S(C)(=O)=O)cc3F)nc(-c3cn(C)c(C(F)F)n3)c2C2CC2)n[nH]1 [Compound 165] — the same, 0.004 µM
- COCc1cc(-c2nc(N(C)c3c(F)cc(S(C)(=O)=O)cc3F)nc(Nc3cc(C)[nH]n3)c2C2CC2)nn1C [Compound 166] — the same, 0.004 µM
- Cc1cc(Nc2nc(N(C)c3c(F)cc(S(C)(=O)=O)cc3F)nc(-c3cn(C)c(CO)n3)c2C2CC2)n[nH]1 [Compound 167] — 7.5-fold higher, 0.03 µM
- Cc1cc(Nc2nc(N(C)c3c(F)cc(S(C)(=O)=O)cc3F)nc(-c3nc(C)[nH]c3C)c2C2CC2)n[nH]1 [Compound 168] — 10-fold higher, 0.041 µM
- Cc1cc(Nc2nc(N(C)c3c(F)cc(S(C)(=O)=O)cc3F)nc(-c3ccn(CCO)n3)c2C2CC2)n[nH]1 [Compound 169] — the same, 0.004 µM
- Cc1cc(Nc2nc(N(C)c3c(F)cc(S(C)(=O)=O)cc3F)nc(-c3cnn(CC(=O)N(C)C)c3)c2C2CC2)n[nH]1 [Compound 170] — 2.8-fold higher, 0.011 µM
- CNC(=O)Cn1cc(-c2nc(N(C)c3c(F)cc(S(C)(=O)=O)cc3F)nc(Nc3cc(C)[nH]n3)c2C2CC2)cn1 [Compound 171] — 5.8-fold higher, 0.023 µM
- Cc1cc(Nc2nc(N(C)c3c(F)cc(S(C)(=O)=O)cc3F)nc(-c3cnn(CCS(C)(=O)=O)c3)c2C2CC2)n[nH]1 [Compound 172] — 1.5-fold higher, 0.006 µM
- Cc1cc(Nc2nc(N(C)c3c(F)cc(S(C)(=O)=O)cc3F)nc(-c3ncn(C)c3C#N)c2C2CC2)n[nH]1 [Compound 173] — 90-fold higher, 0.36 µM
- Cc1cc(Nc2nc(N(C)c3c(F)cc(S(C)(=O)=O)cc3F)nc(-c3cnn4c3CCC4)c2C2CC2)n[nH]1 [Compound 175] — the same, 0.004 µM
- Cc1cc(Nc2nc(N(C)c3c(F)cc(S(C)(=O)=O)cc3F)nc(-c3cnn4c3CC(C)(C)C4)c2C2CC2)n[nH]1 [Compound 176] — 3.2-fold higher, 0.013 µM
- Cc1cc(Nc2nc(N(C)c3c(F)cc(S(C)(=O)=O)cc3F)nc(-c3cn(C(CO)CO)nc3C)c2C2CC2)n[nH]1 [Compound 177] — 9.5-fold higher, 0.038 µM
- Cc1cc(Nc2nc(N(C)c3c(F)cc(S(C)(=O)=O)cc3F)nc(-c3cc(CO)n(C)n3)c2C2CC2)n[nH]1 [Compound 178] — 2.8-fold higher, 0.011 µM
- Cc1cc(Nc2nc(N(C)c3c(F)cc(S(C)(=O)=O)cc3F)nc(C(N)=O)c2C2CC2)n[nH]1 [Compound 179] — 65-fold higher, 0.26 µM
- Cc1cc(Nc2nc(N(C)c3c(F)cc(S(C)(=O)=O)cc3F)nc(-c3cnn(C)c3N)c2C2CC2)n[nH]1 [Compound 181] — 7.2-fold higher, 0.029 µM
- Cc1cc(Nc2nc(N(C)c3c(F)cc(S(C)(=O)=O)cc3F)nc(-c3cnn4c3COCC4)c2C2CC2)n[nH]1 [Compound 182] — 2.8-fold higher, 0.011 µM
- Cc1cc(Nc2nc(N(C)c3c(F)cc(S(C)(=O)=O)cc3F)nc(-c3cnc4n3CCC4)c2C2CC2)n[nH]1 [Compound 183] — 3.2-fold higher, 0.013 µM
- Cc1cc(Nc2nc(N(C)c3c(F)cc(S(C)(=O)=O)cc3F)nc(N3CCN(C)C(=O)C3)c2C2CC2)n[nH]1 [Compound 184] — 8.2-fold higher, 0.033 µM
- Cc1cc(Nc2nc(N(C)c3c(F)cc(S(C)(=O)=O)cc3F)nc(-c3cn(C4CCOCC4)nc3C)c2C2CC2)n[nH]1 [Compound 185] — 5.2-fold higher, 0.021 µM
- Cc1cc(Nc2nc(N(C)c3c(F)cc(S(C)(=O)=O)cc3F)nc(-c3cnn(C4CS(=O)(=O)C4)c3)c2C2CC2)n[nH]1 [Compound 186] — 4.2-fold higher, 0.017 µM
- Cc1cc(Nc2nc(N(C)c3cc(F)c(S(C)(=O)=O)cc3F)nc(-c3cn(C)c(C)n3)c2C2CC2)n[nH]1 [Compound 187] — 3.2-fold higher, 0.013 µM
- COCCn1cc(-c2nc(N(C)c3c(F)cc(S(C)(=O)=O)cc3F)nc(Nc3cc(C)[nH]n3)c2C2CC2)nc1C [Compound 188] — 2-fold higher, 0.008 µM
- Cc1cc(Nc2nc(Nc3c(F)cc(S(C)(=O)=O)cc3F)nc(-c3cn(C)cn3)c2C2CC2)n[nH]1 [Compound 189] — 38-fold higher, 0.15 µM
- Cc1cc(Nc2nc(N(C)c3c(F)cc(S(C)(=O)=O)cc3F)nc(-c3cn(CCS(C)(=O)=O)c(C)n3)c2C2CC2)n[nH]1 [Compound 192] — 150-fold higher, 0.61 µM
- Cc1cc(Nc2nc(N(C)c3c(F)cc(S(C)(=O)=O)cc3F)nc(-c3cnn([C@H]4CC[C@H](O)CC4)c3)c2C2CC2)n[nH]1 [Compound 193] — within 1.5-fold, 0.003 µM
- Cc1cc(Nc2nc(N(C)c3cc(F)c(S(C)(=O)=O)cc3F)nc(-c3ccn(C(F)F)n3)c2C2CC2)n[nH]1 [Compound 194] — 16-fold higher, 0.063 µM
- Cc1cc(Nc2nc(N(C)c3cc(F)c(S(C)(=O)=O)cc3F)nc(-c3cn4c(n3)CCC4)c2C2CC2)n[nH]1 [Compound 197] — 6-fold higher, 0.024 µM
- Cc1cc(Nc2nc(N(C)c3c(F)cc(S(C)(=O)=O)cc3F)nc(-c3cn(C)nc3C3CC3)c2C2CC2)n[nH]1 [Compound 198] — the same, 0.004 µM
- Cc1cc(Nc2nc(N(C)c3ccc(S(C)(=O)=O)cc3F)nc(-c3cn(C(C)C)cn3)c2C2CC2)n[nH]1 [Compound 199] — 4.2-fold higher, 0.017 µM
- Cc1cc(Nc2nc(N(C)c3cc(F)c(S(C)(=O)=O)cc3F)nc(-c3cn(C(C)C)cn3)c2C2CC2)n[nH]1 [Compound 200] — 2-fold higher, 0.008 µM
- Cc1cc(Nc2nc(N(C)c3c(F)cc(S(C)(=O)=O)cc3F)nc(-c3cnn(CCO)c3C)c2C2CC2)n[nH]1 [Compound 201] — 1.8-fold higher, 0.007 µM
